From patent US20230085307A1, “PYRIDAZINONE COMPOUND AND HERBICIDE” (NISSAN CHEMICAL CORPORATION, priority 2019, published 2023)

The compounds below were run on Japanese bulrush (assay: Test Example 1: herbicidal activity, application before weed generation under submerged conditions (Table 16, symbol B)). Conditions: 320 g/ha applied herbicide.
Type: in vivo, Japanese bulrush (Schoenoplectus juncoides)
In short: (§1)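 Submerged Wagner pots (alluvial soil, 4 cm water) sown with weed seeds and planted with 2.5-leaf rice seedlings; emulsifiable concentrate diluted in water applied to water surface on sowing day. Held in greenhouse at 25-30 °C; injury scored 0-5 by herbicidal rate after three weeks.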
In the case of CCCC(=O)Oc1c(C)nn(C)c(=O)c1-c1c(-c2ccc(SC(C)C)cc2)sc2ccc(F)cc12 [2-253], the “Herbicidal effect on B: Japanese bulrush (grade 0-5)” value is reported as 3 (Herbicidal rate of 40% or more and less than 70%).
CCCC(=O)Oc1c(C)nn(C)c(=O)c1-c1c(-c2ccc(SC3CC3)cc2)sc2ccc(F)cc12 [2-255] was tested, and the “Herbicidal effect on B: Japanese bulrush (grade 0-5)” value was 3 (Herbicidal rate of 40% or more and less than 70%).

Each compound was assayed on redroot pigweed (assay: Test Example 5: herbicidal effect by foliage application, plastic box (Table 20, symbol N)). Conditions: foliage application, AAH 320 g/ha, evaluated three weeks after application.
Type: in vivo, redroot pigweed (Amaranthus retroflexus)
In short: (§2)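 Sow seeds spot-wise in sterilized diluvial soil; cover with ~1.5 cm soil. Grow 14 days in greenhouse, 25° C. to 30° C. Spray foliage with emulsion diluted to predetermined amount. Rate effect after 3 weeks.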
CCCC(=O)Oc1c(C)nn(C)c(=O)c1-c1c(-c2ccc(SC(C)C)cc2)sc2ccc(F)cc12 [2-253] was tested, and the “N: redroot pigweed, herbicidal effect (criteria 0-5)” value was 5 (Herbicidal rate of 90% or more (almost completely withered)).
CCCC(=O)Oc1c(C)nn(C)c(=O)c1-c1c(-c2ccc(SC3CC3)cc2)sc2ccc(F)cc12 [2-255] was tested, and the “N: redroot pigweed, herbicidal effect (criteria 0-5)” value was 5 (Herbicidal rate of 90% or more (almost completely withered)).

What follows are compounds tested on Italian ryegrass (assay: Test Example 4: herbicidal effect by soil treatment (Table 19, symbol K)). Conditions: amount of applied herbicide 320 g/ha.
Type: in vivo, Italian ryegrass (Lolium multiflorum)
In short: (§3)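 Soil-surface application: an emulsion agent diluted with water to the predetermined dose is sprayed uniformly over seeds lying under roughly 1.5 cm of sterilized diluvial soil. Boxes stay in a greenhouse at 25° C. to 30° C. Three weeks later, each species is graded on previously defined criteria.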
CCCC(=O)Oc1c(C)nn(C)c(=O)c1-c1c(-c2ccc(SC(C)C)cc2)sc2ccc(F)cc12 [2-253] was tested, and the “herbicidal effect on K: Italian ryegrass” value was 0 (Herbicidal rate of 5% or less (almost no effect)).
CCCC(=O)Oc1c(C)nn(C)c(=O)c1-c1c(-c2ccc(SC3CC3)cc2)sc2ccc(F)cc12 [2-255] was tested, and the “herbicidal effect on K: Italian ryegrass” value was 3 (Herbicidal rate of 40% or more and less than 70%).

These compounds were tested on green foxtail (assay: Test Example 5: herbicidal effect by foliage application, plastic box (Table 20, symbol G)). Conditions: foliage application, AAH 320 g/ha, evaluated three weeks after application.
Type: in vivo, green foxtail (Setaria viridis)
In short: as §2
For CCCC(=O)Oc1c(C)nn(C)c(=O)c1-c1c(-c2ccc(SC(C)C)cc2)sc2ccc(F)cc12 [2-253], the “G: green foxtail, herbicidal effect (criteria 0-5)” value was 5 (Herbicidal rate of 90% or more (almost completely withered)).
For CCCC(=O)Oc1c(C)nn(C)c(=O)c1-c1c(-c2ccc(SC3CC3)cc2)sc2ccc(F)cc12 [2-255], the “G: green foxtail, herbicidal effect (criteria 0-5)” value was 5 (Herbicidal rate of 90% or more (almost completely withered)).

Each compound was assayed on late watergrass (assay: Test Example 2: herbicidal activity, application during weed generation under submerged conditions (Table 17, symbol A)). Conditions: AAH 320 g/ha; application during weed generation, submerged conditions.
Type: in vivo, late watergrass (Echinochloa oryzicola)
In short: (§4)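 Alluvial soil in Wagner pots was flooded to 4 cm depth and sown with the three weeds together; pots were kept in a greenhouse at 25° C. to 30° C. At the one to two leaf stage, an emulsion formulation diluted in water to a set rate went onto the water surface; scored three weeks later.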
In the case of CCCC(=O)Oc1c(C)nn(C)c(=O)c1-c1c(-c2ccc(SC(C)C)cc2)sc2ccc(F)cc12 [2-253], the “herbicidal effect rating, A: late watergrass” value is reported as 3 (Herbicidal rate of 40% or more and less than 70%).
With CCCC(=O)Oc1c(C)nn(C)c(=O)c1-c1c(-c2ccc(SC3CC3)cc2)sc2ccc(F)cc12 [2-255] the “herbicidal effect rating, A: late watergrass” value was 4 (Herbicidal rate of 70% or more and less than 90%).

Each compound was assayed on Chinese sprangletop (assay: Test Example 3: herbicidal effect by foliage application, Wagner pot (Table 18, symbol D)). Conditions: amount of applied herbicide 320 g/ha.
Type: in vivo, chinese sprangletop (Leptochloa chinensis)
In short: (§5)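 Plants were sown in alluvial soil held under 0.1–0.5 cm standing water and grown 14 days in a greenhouse at 25–30 °C. An emulsifiable formulation, water-diluted to the set dose, was then sprayed onto the foliage, and effects were scored three weeks later using previously defined criteria.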
With CCCC(=O)Oc1c(C)nn(C)c(=O)c1-c1c(-c2ccc(SC(C)C)cc2)sc2ccc(F)cc12 [2-253] the “herbicidal effect on D: Chinese sprangletop” value was 3 (Herbicidal rate of 40% or more and less than 70%).
In the case of CCCC(=O)Oc1c(C)nn(C)c(=O)c1-c1c(-c2ccc(SC3CC3)cc2)sc2ccc(F)cc12 [2-255], the “herbicidal effect on D: Chinese sprangletop” value is reported as 4 (Herbicidal rate of 70% or more and less than 90%).

What follows are compounds tested on rice flat sedge (assay: Test Example 3: herbicidal effect by foliage application, Wagner pot (Table 18, symbol E)). Conditions: amount of applied herbicide 320 g/ha.
Type: in vivo, rice flat sedge (Cyperus iria)
In short: as §5
In the case of CCCC(=O)Oc1c(C)nn(C)c(=O)c1-c1c(-c2ccc(SC(C)C)cc2)sc2ccc(F)cc12 [2-253], the “herbicidal effect on E: rice flat sedge” value is reported as 4 (Herbicidal rate of 70% or more and less than 90%).
With CCCC(=O)Oc1c(C)nn(C)c(=O)c1-c1c(-c2ccc(SC3CC3)cc2)sc2ccc(F)cc12 [2-255] the “herbicidal effect on E: rice flat sedge” value was 5 (Herbicidal rate of 90% or more (almost completely withered)).

What follows are compounds tested on late watergrass (assay: Test Example 1: herbicidal activity, application before weed generation under submerged conditions (Table 16, symbol A)). Conditions: 320 g/ha applied herbicide.
Type: in vivo, late watergrass (Echinochloa oryzicola)
In short: as §1
With CCCC(=O)Oc1c(C)nn(C)c(=O)c1-c1c(-c2ccc(SC(C)C)cc2)sc2ccc(F)cc12 [2-253] the “Herbicidal effect on A: late watergrass (grade 0-5)” value was 5 (Herbicidal rate of 90% or more (almost completely withered)).
With CCCC(=O)Oc1c(C)nn(C)c(=O)c1-c1c(-c2ccc(SC3CC3)cc2)sc2ccc(F)cc12 [2-255] the “Herbicidal effect on A: late watergrass (grade 0-5)” value was 5 (Herbicidal rate of 90% or more (almost completely withered)).

Each compound was assayed on Italian ryegrass (assay: Test Example 5: herbicidal effect by foliage application, plastic box (Table 20, symbol K)). Conditions: foliage application, AAH 320 g/ha, evaluated three weeks after application.
Type: in vivo, Italian ryegrass (Lolium multiflorum)
In short: as §2
With CCCC(=O)Oc1c(C)nn(C)c(=O)c1-c1c(-c2ccc(SC(C)C)cc2)sc2ccc(F)cc12 [2-253] the “K: Italian ryegrass, herbicidal effect (criteria 0-5)” value was 3 (Herbicidal rate of 40% or more and less than 70%).
CCCC(=O)Oc1c(C)nn(C)c(=O)c1-c1c(-c2ccc(SC3CC3)cc2)sc2ccc(F)cc12 [2-255] was tested, and the “K: Italian ryegrass, herbicidal effect (criteria 0-5)” value was 5 (Herbicidal rate of 90% or more (almost completely withered)).

Each compound was assayed on oval-leafed pondweed (assay: Test Example 2: herbicidal activity, application during weed generation under submerged conditions (Table 17, symbol C)). Conditions: AAH 320 g/ha; application during weed generation, submerged conditions.
Type: in vivo, oval-leafed pondweed (Monochoria vaginalis)
In short: as §4
In the case of CCCC(=O)Oc1c(C)nn(C)c(=O)c1-c1c(-c2ccc(SC(C)C)cc2)sc2ccc(F)cc12 [2-253], the “herbicidal effect rating, C: oval-leafed pondweed” value is reported as 3 (Herbicidal rate of 40% or more and less than 70%).
CCCC(=O)Oc1c(C)nn(C)c(=O)c1-c1c(-c2ccc(SC3CC3)cc2)sc2ccc(F)cc12 [2-255] was tested, and the “herbicidal effect rating, C: oval-leafed pondweed” value was 2 (Herbicidal rate of 20% or more and less than 40%).

The compounds below were run on wild oat (assay: Test Example 5: herbicidal effect by foliage application, plastic box (Table 20, symbol I)). Conditions: foliage application, AAH 320 g/ha, evaluated three weeks after application.
Type: in vivo, wild oat (Avena fatua)
In short: as §2
With CCCC(=O)Oc1c(C)nn(C)c(=O)c1-c1c(-c2ccc(SC(C)C)cc2)sc2ccc(F)cc12 [2-253] the “I: wild oat, herbicidal effect (criteria 0-5)” value was 2 (Herbicidal rate of 20% or more and less than 40%).
In the case of CCCC(=O)Oc1c(C)nn(C)c(=O)c1-c1c(-c2ccc(SC3CC3)cc2)sc2ccc(F)cc12 [2-255], the “I: wild oat, herbicidal effect (criteria 0-5)” value is reported as 5 (Herbicidal rate of 90% or more (almost completely withered)).

What follows are compounds tested on barnyard grass (assay: Test Example 5: herbicidal effect by foliage application, plastic box (Table 20, symbol H)). Conditions: foliage application, AAH 320 g/ha, evaluated three weeks after application.
Type: in vivo, barnyard grass (Echinochloa crus-galli)
In short: as §2
With CCCC(=O)Oc1c(C)nn(C)c(=O)c1-c1c(-c2ccc(SC(C)C)cc2)sc2ccc(F)cc12 [2-253] the “H: barnyard grass, herbicidal effect (criteria 0-5)” value was 5 (Herbicidal rate of 90% or more (almost completely withered)).
For CCCC(=O)Oc1c(C)nn(C)c(=O)c1-c1c(-c2ccc(SC3CC3)cc2)sc2ccc(F)cc12 [2-255], the “H: barnyard grass, herbicidal effect (criteria 0-5)” value was 5 (Herbicidal rate of 90% or more (almost completely withered)).

These compounds were tested on barnyard grass (assay: Test Example 3: herbicidal effect by foliage application, Wagner pot (Table 18, symbol H)). Conditions: amount of applied herbicide 320 g/ha.
Type: in vivo, barnyard grass (Echinochloa crus-galli)
In short: as §5
CCCC(=O)Oc1c(C)nn(C)c(=O)c1-c1c(-c2ccc(SC(C)C)cc2)sc2ccc(F)cc12 [2-253] was tested, and the “herbicidal effect on H: barnyard grass” value was 5 (Herbicidal rate of 90% or more (almost completely withered)).
CCCC(=O)Oc1c(C)nn(C)c(=O)c1-c1c(-c2ccc(SC3CC3)cc2)sc2ccc(F)cc12 [2-255] was tested, and the “herbicidal effect on H: barnyard grass” value was 5 (Herbicidal rate of 90% or more (almost completely withered)).

The compounds below were run on blackgrass (assay: Test Example 5: herbicidal effect by foliage application, plastic box (Table 20, symbol J)). Conditions: foliage application, AAH 320 g/ha, evaluated three weeks after application.
Type: in vivo, blackgrass (Alopecurus myosuroides)
In short: as §2
With CCCC(=O)Oc1c(C)nn(C)c(=O)c1-c1c(-c2ccc(SC(C)C)cc2)sc2ccc(F)cc12 [2-253] the “J: blackgrass, herbicidal effect (criteria 0-5)” value was 4 (Herbicidal rate of 70% or more and less than 90%).
In the case of CCCC(=O)Oc1c(C)nn(C)c(=O)c1-c1c(-c2ccc(SC3CC3)cc2)sc2ccc(F)cc12 [2-255], the “J: blackgrass, herbicidal effect (criteria 0-5)” value is reported as 5 (Herbicidal rate of 90% or more (almost completely withered)).

These compounds were tested on redroot pigweed (assay: Test Example 4: herbicidal effect by soil treatment (Table 19, symbol N)). Conditions: amount of applied herbicide 320 g/ha.
Type: in vivo, redroot pigweed (Amaranthus retroflexus)
In short: as §3
CCCC(=O)Oc1c(C)nn(C)c(=O)c1-c1c(-c2ccc(SC(C)C)cc2)sc2ccc(F)cc12 [2-253] was tested, and the “herbicidal effect on N: redroot pigweed” value was 5 (Herbicidal rate of 90% or more (almost completely withered)).
For CCCC(=O)Oc1c(C)nn(C)c(=O)c1-c1c(-c2ccc(SC3CC3)cc2)sc2ccc(F)cc12 [2-255], the “herbicidal effect on N: redroot pigweed” value was 4 (Herbicidal rate of 70% or more and less than 90%).

These compounds were tested on windgrass (assay: Test Example 4: herbicidal effect by soil treatment (Table 19, symbol L)). Conditions: amount of applied herbicide 320 g/ha.
Type: in vivo, windgrass (Apera spica-venti)
In short: as §3
For CCCC(=O)Oc1c(C)nn(C)c(=O)c1-c1c(-c2ccc(SC(C)C)cc2)sc2ccc(F)cc12 [2-253], the “herbicidal effect on L: windgrass” value was 0 (Herbicidal rate of 5% or less (almost no effect)).
In the case of CCCC(=O)Oc1c(C)nn(C)c(=O)c1-c1c(-c2ccc(SC3CC3)cc2)sc2ccc(F)cc12 [2-255], the “herbicidal effect on L: windgrass” value is reported as 3 (Herbicidal rate of 40% or more and less than 70%).
